Patent publication US20020137929A1, “1 - (3-heterocyclylphenyl) isothiourea, -isourea, -guanidine and -amidine herbicidal agents” (Intellectual Property Department, BASF Aktiengesellschaft, priority 1998, published 2002)

Legend:
[1] = test system: CHEAL (Lambsquarters, Common); assay: Postemergence herbicidal evaluation; format: in vivo, Chenopodium album; conditions: postemergence
Summary of the method: (§1)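 Two-week seedlings sprayed postemergence at 40 psi; formulation: 1:1 acetone/water, 0.5% TWEEN 20; application ≈0.0156–0.500 kg/ha. Greenhouse grow-out, then 0–9 visual scoring at 4–5 weeks.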

[2] = test system: CYPIR (Rice Flatsedge); assay: Preemergence weed control under flooded paddy conditions; format: in vivo, Cyperus iria; conditions: rated 3-4 weeks after treatment
Summary of the method: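 Seeds or propagules sown in silt loam kept flooded 1.5-3 cm; compounds in 50/50 acetone/water pipetted into flood water at about 0.0313 to 0.500 kg/ha. Greenhouse; visual 0-9 rating versus untreated control 3-4 weeks after treatment.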

[3] = test system: SAGPY (Arrowhead (Pygmaea)); assay: as above; format: in vivo, Sagittaria pygmaea; conditions: rated 3-4 weeks after treatment
Summary of the method: (§2)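 Flooded-pot preemergence screen with silt loam and seeds in the upper 0.5 cm. Dose about 0.0313 to 0.500 kg/ha, delivered into flood water; visual 0-9 score after 3 to 4 weeks.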

[4] = test system: ZEAMX (Corn, Field); assay: Preemergence herbicidal evaluation; format: in vivo, Zea mays; conditions: rated 4-5 weeks after treatment
Summary of the method: (§3)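 Seeds were mixed with potting soil and planted on about one inch of soil, then sprayed with test compound in aqueous acetone at about 0.0156 to 0.500 kg per hectare. Plants grew under standard greenhouse care and were visually rated 0-9 against untreated controls 4-5 weeks post-treatment.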

[5] = test system: TRZAWR (Wheat, Winter, cv Riband); assay: Preemergence herbicidal evaluation; format: in vivo, Triticum aestivum; conditions: rated 4-5 weeks after treatment
Summary of the method: as §3

[6] = test system: CASOB (Sicklepod); assay: Postemergence herbicidal evaluation; format: in vivo, Cassia obtusifolia; conditions: postemergence
Summary of the method: as §1

[7] = test system: ORYSAT (Rice, Tebonnet); assay: Preemergence herbicidal evaluation; format: in vivo, Oryza sativa, (L.) Tebonnet; conditions: rated 4-5 weeks after treatment
Summary of the method: as §3

[8] = test system: ECHCG (Barnyardgrass); assay: Postemergence herbicidal evaluation; format: in vivo, Echinochloa crus-galli; conditions: postemergence
Summary of the method: as §1

[9] = test system: ORYSAT (Rice, Tebonnet); assay: Postemergence herbicidal evaluation; format: in vivo, Oryza sativa, (L.) Tebonnet; conditions: postemergence
Summary of the method: as §1

[10] = test system: MOOVA (Monochoria); assay: Preemergence weed control under flooded paddy conditions; format: in vivo, Monochoria vaginalis; conditions: rated 3-4 weeks after treatment
Summary of the method: as §2

[11] = test system: GLXMAW (Soybean, Williams); assay: Preemergence herbicidal evaluation; format: in vivo, Glycine max, (L.) Merr. cv Williams; conditions: rated 4-5 weeks after treatment
Summary of the method: as §3

[12] = test system: GALAP (Galium); assay: Preemergence herbicidal evaluation; format: in vivo, Galium aparine; conditions: rated 4-5 weeks after treatment
Summary of the method: as §3

[13] = test system: CYPSE (Flatsedge); assay: Postemergence weed control under flooded paddy conditions; format: in vivo, Cyperus serotinus; conditions: postemergence weeds, rated 3 to 4 weeks after treatment
Summary of the method: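 With weeds 3 to 5 cm tall and rice at the 1.5 to 2.5 leaf stage, containers were flooded and water held 1.5 to 3 cm above soil. Compounds in 50/50 v/v aqueous/acetone went into the flood water at about 0.0313 to 0.500 kg/ha a.i. Effects were visually rated 0–9 against controls after three to four weeks in the greenhouse.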

[14] = test system: SETVI (Foxtail, Green); assay: Preemergence herbicidal evaluation; format: in vivo, Setaria viridis; conditions: rated 4-5 weeks after treatment
Summary of the method: as §3

Q: What does the source list for `CC(C)S(=O)(=O)NC(=O)CC1SC(=Nc2cc(-n3c(=O)cc(C(F)(F)F)n(C)c3=O)c(F)cc2Cl)N(C)C1=O` (stereo not drawn) [Compound 119, 2-{{2-Chloro-5-[3,6-dihydro-3-methyl-2,6-dioxo-4-(trifluoromethyl)-1(2H)-pyrimidinyl]-4-fluorophenyl}imino}-N-(isopropylsulfonyl)-3-methyl-4-oxo-5-thiazolidineacetamide]?
A: Herbicidal rating CHEAL ([1]; rate 0.0156 kg/ha): 9.0; Herbicidal rating CHEAL ([1]; rate 0.0313 kg/ha): 9.0; Herbicidal rating CHEAL ([1]; rate 0.0625 kg/ha): 9.0; herbicidal effect rating, CYPIR ([2]; 0.0313 kg/ha): 4.5; herbicidal effect rating, CYPIR ([2]; 0.0625 kg/ha): 7.0; herbicidal effect rating, CYPIR ([2]; 0.1250 kg/ha): 8.5; herbicidal effect rating, CYPIR ([2]; 0.2500 kg/ha): 8.0; herbicidal effect rating, SAGPY ([3]; 0.0313 kg/ha): 2.5; herbicidal effect rating, SAGPY ([3]; 0.0625 kg/ha): 3.0; herbicidal effect rating, SAGPY ([3]; 0.1250 kg/ha): 3.5; herbicidal effect rating, SAGPY ([3]; 0.2500 kg/ha): 4.5; Preemergence herbicidal rating ZEAMX ([4]; rate 0.0156 kg/ha): 0.0; Preemergence herbicidal rating ZEAMX ([4]; rate 0.0313 kg/ha): 0.0; Preemergence herbicidal rating ZEAMX ([4]; rate 0.0625 kg/ha): 0.0; Preemergence herbicidal rating ZEAMX ([4]; rate 0.1250 kg/ha): 0.0; Preemergence herbicidal rating ZEAMX ([4]; rate 0.2500 kg/ha): 1.0; Preemergence herbicidal rating TRZAWR ([5]; rate 0.0156 kg/ha): 0.0; Preemergence herbicidal rating TRZAWR ([5]; rate 0.0313 kg/ha): 0.0; Preemergence herbicidal rating TRZAWR ([5]; rate 0.0625 kg/ha): 0.0; Preemergence herbicidal rating TRZAWR ([5]; rate 0.1250 kg/ha): 0.0; Preemergence herbicidal rating TRZAWR ([5]; rate 0.2500 kg/ha): 0.0; Herbicidal rating CASOB ([6]; rate 0.0156 kg/ha): 3.0; Herbicidal rating CASOB ([6]; rate 0.0313 kg/ha): 5.0; Herbicidal rating CASOB ([6]; rate 0.0625 kg/ha): 7.0; Preemergence herbicidal rating ORYSAT ([7]; rate 0.0156 kg/ha): 0.0; Preemergence herbicidal rating ORYSAT ([7]; rate 0.0313 kg/ha): 0.0; Preemergence herbicidal rating ORYSAT ([7]; rate 0.0625 kg/ha): 0.0; Preemergence herbicidal rating ORYSAT ([7]; rate 0.1250 kg/ha): 0.0; Preemergence herbicidal rating ORYSAT ([7]; rate 0.2500 kg/ha): 0.0; Herbicidal rating ECHCG ([8]; rate 0.0156 kg/ha): 0.0; Herbicidal rating ECHCG ([8]; rate 0.0313 kg/ha): 0.0; Herbicidal rating ECHCG ([8]; rate 0.0625 kg/ha): 1.0; Herbicidal rating ORYSAT ([9]; rate 0.0156 kg/ha): 1.5; Herbicidal rating ORYSAT ([9]; rate 0.0313 kg/ha): 2.0; Herbicidal rating ORYSAT ([9]; rate 0.0625 kg/ha): 3.0; herbicidal effect rating, MOOVA ([10]; 0.0313 kg/ha): 7.5; herbicidal effect rating, MOOVA ([10]; 0.0625 kg/ha): 8.0; herbicidal effect rating, MOOVA ([10]; 0.1250 kg/ha): 9.0; herbicidal effect rating, MOOVA ([10]; 0.2500 kg/ha): 9.0; Preemergence herbicidal rating GLXMAW ([11]; rate 0.0156 kg/ha): 0.0; Preemergence herbicidal rating GLXMAW ([11]; rate 0.0313 kg/ha): 0.0; Preemergence herbicidal rating GLXMAW ([11]; rate 0.0625 kg/ha): 0.0; Preemergence herbicidal rating GLXMAW ([11]; rate 0.1250 kg/ha): 1.0; Preemergence herbicidal rating GLXMAW ([11]; rate 0.2500 kg/ha): 2.0; Preemergence herbicidal rating GALAP ([12]; rate 0.0156 kg/ha): 0.0; Preemergence herbicidal rating GALAP ([12]; rate 0.0313 kg/ha): 0.0; Preemergence herbicidal rating GALAP ([12]; rate 0.0625 kg/ha): 0.0; Preemergence herbicidal rating GALAP ([12]; rate 0.1250 kg/ha): 0.0; Preemergence herbicidal rating GALAP ([12]; rate 0.2500 kg/ha): 4.0; Herbicidal rating CYPSE ([13]; Rate 0.0313 kg/ha): 0.0; Herbicidal rating CYPSE ([13]; Rate 0.0625 kg/ha): 0.0; Herbicidal rating CYPSE ([13]; Rate 0.1250 kg/ha): 0.0; Preemergence herbicidal rating SETVI ([14]; rate 0.0156 kg/ha): 0.0; Preemergence herbicidal rating SETVI ([14]; rate 0.0313 kg/ha): 0.0; Preemergence herbicidal rating SETVI ([14]; rate 0.0625 kg/ha): 2.0; Preemergence herbicidal rating SETVI ([14]; rate 0.1250 kg/ha): 7.0; Preemergence herbicidal rating SETVI ([14]; rate 0.2500 kg/ha): 7.0
